Calls of active or inactive are those of the source.
Assays:
[1] = system: Staphylococcus aureus; experiment: Inhibitors of Bacterial Quorum Sensing Structure Activity Relationship (SAR) Analysis: Dose Response Assay. [Related pubchem assays: 700, 527 ]; assay type: functional, organism-based
[2] = biological target: Bcl-2-like protein 1 (Homo sapiens, UniProt Q07817); experiment: blockers of BCLXL peptide binding – biochemical, fluorescence polarization, 1536-well, selectivity assay for MCL1 inhibitor project, dose response (AID 2218)
Sequence of Bcl-2-like protein 1 (Q07817 whole entry): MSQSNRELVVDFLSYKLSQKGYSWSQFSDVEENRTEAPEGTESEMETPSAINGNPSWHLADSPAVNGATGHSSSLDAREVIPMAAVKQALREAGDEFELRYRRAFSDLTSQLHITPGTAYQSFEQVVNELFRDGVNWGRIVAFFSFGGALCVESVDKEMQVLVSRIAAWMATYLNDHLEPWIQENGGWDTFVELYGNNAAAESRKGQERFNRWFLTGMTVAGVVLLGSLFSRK

[3] = biological target: T1, Induced myeloid leukemia cell differentiation protein Mcl-1 (Homo sapiens, UniProt Q07820); experiment: blockers of MCL1 binding to BIM peptide – biochemical, fluorescence polarization, BIM-BH3 peptide, 1536-well, dose response (AID 2217)
T1 sequence (Q07820 whole entry): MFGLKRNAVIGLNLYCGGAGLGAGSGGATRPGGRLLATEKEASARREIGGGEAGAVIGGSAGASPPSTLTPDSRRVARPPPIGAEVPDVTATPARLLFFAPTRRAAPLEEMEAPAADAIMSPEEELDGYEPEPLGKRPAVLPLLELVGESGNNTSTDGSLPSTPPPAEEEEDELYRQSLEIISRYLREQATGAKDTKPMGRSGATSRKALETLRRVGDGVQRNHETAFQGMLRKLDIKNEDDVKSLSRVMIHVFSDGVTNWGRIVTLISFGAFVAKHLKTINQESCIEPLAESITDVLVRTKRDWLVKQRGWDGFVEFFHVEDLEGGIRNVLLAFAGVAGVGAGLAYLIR

[4] = biological target: T1, Induced myeloid leukemia cell differentiation protein Mcl-1; assay type: functional
[5] = biological target: Peroxisome proliferator-activated receptor gamma/Nuclear receptor corepressor 2 (Homo sapiens, UniProt P37231+Q9Y618); assay type: functional
[6] = biological target: T2, Bcl-2-like protein 10 (Homo sapiens, UniProt Q9HD36); experiment: Concentration-response of Bcl-B inhibitors by biochemical FP with TR3 (AID 1243); assay type: functional
T2 sequence (Q9HD36 whole entry): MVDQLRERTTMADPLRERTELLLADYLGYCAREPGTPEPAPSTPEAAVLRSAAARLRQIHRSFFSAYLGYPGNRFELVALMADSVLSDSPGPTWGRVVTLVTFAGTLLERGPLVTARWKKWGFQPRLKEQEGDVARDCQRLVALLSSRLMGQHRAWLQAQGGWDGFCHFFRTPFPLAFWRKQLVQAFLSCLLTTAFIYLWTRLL

[7] = biological target: Photoreceptor-specific nuclear receptor (Homo sapiens, UniProt Q9Y5X4); assay type: functional;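 note: potency for compounds that break the NR2E3 corepressor complex and count as activators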
Sequence of Photoreceptor-specific nuclear receptor (Q9Y5X4 whole entry): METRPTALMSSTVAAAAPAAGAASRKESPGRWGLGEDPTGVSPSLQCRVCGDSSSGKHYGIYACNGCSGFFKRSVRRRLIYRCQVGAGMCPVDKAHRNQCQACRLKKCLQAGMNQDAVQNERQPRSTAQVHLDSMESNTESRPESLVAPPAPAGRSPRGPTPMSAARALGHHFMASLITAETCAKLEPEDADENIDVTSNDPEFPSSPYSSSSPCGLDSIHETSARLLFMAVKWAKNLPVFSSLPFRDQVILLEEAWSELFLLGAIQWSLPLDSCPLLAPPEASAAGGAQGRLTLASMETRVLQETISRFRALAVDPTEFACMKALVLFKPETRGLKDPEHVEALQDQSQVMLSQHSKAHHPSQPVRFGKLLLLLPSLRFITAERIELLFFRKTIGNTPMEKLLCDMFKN

[8] = system: HEK293; experiment: cells; assay type: functional, cell-based; conditions: Homo sapiens
[9] = NIH-3T3 fibroblast cytotoxicity, dose response, cytotoxicity control, cell-based, fluorescence, Alamar Blue, secondary assay (AID 2327); assay type: functional;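 note: NIH-3T3 mouse fibroblasts cultured with fluconazole at 8 µg/mL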
[10] = biological target: T3, Interleukin-8 (Homo sapiens, UniProt P10145); experiment: SAR analysis of GM-Tri-DAP induced IL-8 secretion in MCF-7/NOD1 cells - Set 2. [Related pubchem assays (depositor defined):AID1575, AID1578, AID2333]; assay type: functional, cell-based
T3 sequence (P10145 whole entry): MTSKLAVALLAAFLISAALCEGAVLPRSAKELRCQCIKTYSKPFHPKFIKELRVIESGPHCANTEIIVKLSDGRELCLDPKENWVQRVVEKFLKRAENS

[11] = fluconazole-exposed Candida albicans growth modulators – fluorescence, retest, confirmation (AID 2467); assay type: functional, cell-based
[12] = biological target: Tumor necrosis factor (Homo sapiens, UniProt P01375); experiment: analog potency on TNFa NF-kB signaling – cell-based, revised, SAR follow-up (AID 2337); assay type: functional
Sequence of Tumor necrosis factor (P01375 whole entry, the tested form may be a part): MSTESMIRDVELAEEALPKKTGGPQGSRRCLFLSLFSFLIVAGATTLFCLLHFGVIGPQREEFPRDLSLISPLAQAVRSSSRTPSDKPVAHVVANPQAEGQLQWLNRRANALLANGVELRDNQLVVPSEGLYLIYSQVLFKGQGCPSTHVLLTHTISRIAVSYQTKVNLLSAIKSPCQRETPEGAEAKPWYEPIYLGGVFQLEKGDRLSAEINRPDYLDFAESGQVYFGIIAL

[13] = biological target: T4, Nucleotide-binding oligomerization domain-containing protein 1 (Homo sapiens, UniProt Q9Y239); experiment: blockers of NOD1 pathway activity – revised, SAR follow-up (AID 2333); assay type: functional
T4 sequence (Q9Y239 whole entry): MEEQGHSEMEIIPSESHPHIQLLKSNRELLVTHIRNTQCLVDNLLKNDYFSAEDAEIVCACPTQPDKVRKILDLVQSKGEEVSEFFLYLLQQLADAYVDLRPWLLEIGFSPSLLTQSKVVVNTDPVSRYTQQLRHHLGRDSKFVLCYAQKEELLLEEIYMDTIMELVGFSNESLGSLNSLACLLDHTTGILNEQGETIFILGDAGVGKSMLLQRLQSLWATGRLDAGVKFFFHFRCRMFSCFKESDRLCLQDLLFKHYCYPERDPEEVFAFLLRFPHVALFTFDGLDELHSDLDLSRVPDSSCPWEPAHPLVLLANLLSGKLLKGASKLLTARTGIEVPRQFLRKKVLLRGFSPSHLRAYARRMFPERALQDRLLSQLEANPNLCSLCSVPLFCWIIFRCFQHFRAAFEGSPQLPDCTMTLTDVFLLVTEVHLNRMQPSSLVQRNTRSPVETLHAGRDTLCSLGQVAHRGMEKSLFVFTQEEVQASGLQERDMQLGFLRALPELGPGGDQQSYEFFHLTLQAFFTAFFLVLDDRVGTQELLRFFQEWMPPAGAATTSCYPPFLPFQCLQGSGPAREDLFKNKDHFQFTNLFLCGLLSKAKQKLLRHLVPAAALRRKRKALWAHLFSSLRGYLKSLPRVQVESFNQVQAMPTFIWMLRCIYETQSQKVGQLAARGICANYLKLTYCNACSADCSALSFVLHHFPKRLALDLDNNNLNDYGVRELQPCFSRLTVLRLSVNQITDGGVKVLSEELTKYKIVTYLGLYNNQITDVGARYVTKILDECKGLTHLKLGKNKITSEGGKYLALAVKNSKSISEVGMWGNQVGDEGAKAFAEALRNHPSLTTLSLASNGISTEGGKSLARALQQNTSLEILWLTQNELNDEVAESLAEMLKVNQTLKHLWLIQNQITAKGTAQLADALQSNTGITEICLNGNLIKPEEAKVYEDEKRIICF

[14] = system: HEK293; experiment: cells; assay type: functional, cell-based; conditions: Homo sapiens; remark: listed apart in the source
[15] = biological target: T5, Nucleotide-binding oligomerization domain-containing protein 2 (Homo sapiens, UniProt Q9HC29); experiment: inhibition of NOD2-driven NF-kB reporter – cell-based, luminescence, uHTS, HEK293 (AID 1566); assay type: functional
T5 sequence (Q9HC29 whole entry, the tested form may be a part): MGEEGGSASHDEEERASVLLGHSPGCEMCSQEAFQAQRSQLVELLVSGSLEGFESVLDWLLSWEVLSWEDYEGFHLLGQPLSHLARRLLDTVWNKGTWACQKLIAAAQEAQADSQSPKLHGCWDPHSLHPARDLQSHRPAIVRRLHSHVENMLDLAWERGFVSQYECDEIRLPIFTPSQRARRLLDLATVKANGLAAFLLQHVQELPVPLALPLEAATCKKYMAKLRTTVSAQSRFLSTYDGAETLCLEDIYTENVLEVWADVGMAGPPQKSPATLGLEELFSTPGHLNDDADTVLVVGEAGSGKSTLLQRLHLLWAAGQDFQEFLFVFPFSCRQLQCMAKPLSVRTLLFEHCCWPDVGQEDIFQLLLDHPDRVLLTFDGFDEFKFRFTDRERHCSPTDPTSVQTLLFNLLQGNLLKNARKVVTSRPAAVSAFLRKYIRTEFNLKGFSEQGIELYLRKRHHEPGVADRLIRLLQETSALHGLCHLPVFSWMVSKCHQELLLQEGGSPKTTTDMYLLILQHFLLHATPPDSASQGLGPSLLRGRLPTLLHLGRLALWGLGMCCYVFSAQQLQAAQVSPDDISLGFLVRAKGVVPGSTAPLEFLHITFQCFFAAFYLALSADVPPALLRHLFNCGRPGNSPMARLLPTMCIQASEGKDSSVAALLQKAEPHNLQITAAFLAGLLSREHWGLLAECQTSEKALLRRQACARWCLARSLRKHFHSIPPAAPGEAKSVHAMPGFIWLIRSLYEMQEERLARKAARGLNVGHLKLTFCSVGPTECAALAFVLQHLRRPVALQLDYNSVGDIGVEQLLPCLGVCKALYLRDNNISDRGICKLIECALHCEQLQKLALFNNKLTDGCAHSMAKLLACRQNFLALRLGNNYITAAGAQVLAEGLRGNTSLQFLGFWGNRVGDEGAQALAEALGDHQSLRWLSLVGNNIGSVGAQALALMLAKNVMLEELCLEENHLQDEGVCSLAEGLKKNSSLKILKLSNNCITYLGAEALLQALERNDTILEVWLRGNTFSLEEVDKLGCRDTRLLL

[16] = NIH3T3 cell viability loss – ATP luminescence, mouse fibroblasts, counter-screen, dose response (AID 2010); assay type: functional, cell-based;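 note: cells exposed to compound for about 90 hours before reading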
[17] = Luminescence-based counterscreen assay for KLF5 inhibitors: dose response cell-based high throughput screening assay to identify cytotoxic compounds using the IEC-6 intestinal epithelial cell line. [Related pubchem assays: 1700 (Primary screen.), 1834 (Confirmation screen.), 1858 (Summary AID.), 1905 (Counterscreen.)]; assay type: functional
[18] = system: HEK293; experiment: cells; assay type: functional, cell-based; conditions: Homo sapiens; remark: listed apart in the source
[19] = Luminescence Cell-Based Dose Response HTS to Identify Inhibitors of 5'UTR Stem-Loop Driven Prion Protein mRNA Translation in H4 Neuroglioblastoma Cells. [Related pubchem assays: 1827 (Project Summary), 1813 (Primary HTS)]; assay type: functional
[20] = biological target: Paired box protein Pax-8 (Homo sapiens, UniProt Q06710); experiment: PAX8 transcriptional activity inhibition in RMG-I – RMG-I cells, luciferase, cherry-pick, dose response (AID 687027); assay type: functional, cell-based;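 note: luciferase reporter driven by Pax8 target thyroperoxidase promoter measured by SteadyGlo luminescence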
Sequence of Paired box protein Pax-8 (Q06710 whole entry): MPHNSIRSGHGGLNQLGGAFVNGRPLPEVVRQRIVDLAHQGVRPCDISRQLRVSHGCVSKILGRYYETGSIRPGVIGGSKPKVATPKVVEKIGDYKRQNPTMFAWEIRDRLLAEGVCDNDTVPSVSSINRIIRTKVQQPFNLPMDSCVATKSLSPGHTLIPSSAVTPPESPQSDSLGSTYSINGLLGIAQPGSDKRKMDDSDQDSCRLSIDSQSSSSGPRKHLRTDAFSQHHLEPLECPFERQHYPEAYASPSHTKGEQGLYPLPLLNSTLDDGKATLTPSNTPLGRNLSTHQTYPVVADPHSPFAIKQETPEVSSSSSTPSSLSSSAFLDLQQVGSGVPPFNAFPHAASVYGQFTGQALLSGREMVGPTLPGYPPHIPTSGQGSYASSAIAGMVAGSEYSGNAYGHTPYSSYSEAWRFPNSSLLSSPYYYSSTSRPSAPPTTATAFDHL

[21] = luciferase reporter signal suppression in cells – H4 neuroglioma cells, luminescence, dose response (AID 1990); assay type: functional, cell-based
[22] = biological target: T3, Interleukin-8; experiment: SAR analysis of Tumor necrosis factor alpha (TNF-alpha) induced IL-8 secretion in MCF-7/NOD1 cells - Set 2. [Related pubchem assays (depositor defined):AID1575, AID2250, AID2260]; assay type: functional, cell-based
[23] = alpha-synuclein stem-loop luciferase translation blockers – H4 neuroglioma cells, luminescence, confirmation (AID 1988); assay type: functional, cell-based
[24] = system: INS1; experiment: INS-1E survival protection against cytokine death – cell-based, luminescence, retest, dose response (AID 449756); assay type: functional; conditions: Rattus norvegicus;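 note: cell death triggered by IL-1 beta plus TNF-alpha plus IFN-gamma mixture; protective hits raise ATP signal compared with cytokine alone wells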
[25] = biological target: T5, Nucleotide-binding oligomerization domain-containing protein 2; experiment: PubChem AID 2334; assay type: functional
[26] = system: HEK293; experiment: cells; conditions: Homo sapiens
[27] = system: Vero; experiment: cells; assay type: functional; conditions: Chlorocebus sabaeus
[28] = system: Vero; experiment: cells; assay type: functional, cell-based; conditions: Chlorocebus sabaeus
[29] = system: HEK293; experiment: NOD2 signaling inhibitors in MDP-stimulated cells, cell-based, uHTS, luminescence (AID 2001); assay type: functional; conditions: Homo sapiens
[30] = system: HEK293; experiment: inhibition of NOD1-driven NF-kB reporter – cell-based, luminescence, uHTS, primary screen (AID 1578); assay type: functional; conditions: Homo sapiens
[31] = Trypanosoma cruzi growth suppression in host cells – NIH3T3 host cells, beta-gal luminescence, confirmation (AID 2044); assay type: functional, cell-based;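 note: intracellular parasites grown in NIH/3T3 mouse fibroblasts as host cells; luminescent beta-galactosidase reporter signal from transgenic T. cruzi replicating inside host cells; inhibitors lower the luminescence signal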
[32] = biological target: Nonstructural protein 1 (Influenza A virus, UniProt Q194T2); assay type: functional, Influenza A virus (A/California/07/2009(H1N1))
Sequence of Nonstructural protein 1 (Q194T2 whole entry): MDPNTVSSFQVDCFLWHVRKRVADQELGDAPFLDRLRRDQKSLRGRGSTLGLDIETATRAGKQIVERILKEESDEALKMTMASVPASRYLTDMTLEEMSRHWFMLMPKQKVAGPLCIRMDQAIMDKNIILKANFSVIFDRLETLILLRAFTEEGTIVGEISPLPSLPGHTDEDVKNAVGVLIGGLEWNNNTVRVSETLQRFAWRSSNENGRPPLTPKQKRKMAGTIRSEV

[33] = biological target: Serine/threonine-protein phosphatase (Homo sapiens, UniProt Q9BPW0); experiment: Counterscreen for inhibitors of PP1: fluorescence-based biochemical high throughput dose response assay to identify inhibitors of Protein Phosphatase 5 (PP5). [Related pubchem assays: 2034 (Summary (PP5 inhibitors)), 1987 (PP5 inhibitors in singlate), 2235 (PP1 inhibitors in singlate)]
Sequence of Serine/threonine-protein phosphatase (Q9BPW0 whole entry): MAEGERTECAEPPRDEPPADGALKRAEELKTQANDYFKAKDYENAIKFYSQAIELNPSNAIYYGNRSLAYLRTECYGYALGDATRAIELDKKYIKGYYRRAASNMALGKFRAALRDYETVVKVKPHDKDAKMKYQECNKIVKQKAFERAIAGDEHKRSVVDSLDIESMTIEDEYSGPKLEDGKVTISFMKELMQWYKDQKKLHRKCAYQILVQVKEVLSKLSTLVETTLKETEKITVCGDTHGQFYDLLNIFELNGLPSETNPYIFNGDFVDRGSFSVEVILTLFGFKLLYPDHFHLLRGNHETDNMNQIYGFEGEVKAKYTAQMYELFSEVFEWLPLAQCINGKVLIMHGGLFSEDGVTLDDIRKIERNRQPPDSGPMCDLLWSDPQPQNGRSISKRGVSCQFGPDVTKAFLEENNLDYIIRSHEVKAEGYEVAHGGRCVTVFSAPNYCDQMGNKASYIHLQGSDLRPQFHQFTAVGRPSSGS

[34] = biological target: Serine/threonine-protein phosphatase PP1-alpha catalytic subunit (Homo sapiens, UniProt P62136); experiment: inhibition of protein phosphatase 1 activity – biochemical, fluorescence, dose response (AID 2403);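 note: phosphatase turnover of OMFP into fluorescent 3-O-methylfluorescein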
Sequence of Serine/threonine-protein phosphatase PP1-alpha catalytic subunit (P62136 whole entry): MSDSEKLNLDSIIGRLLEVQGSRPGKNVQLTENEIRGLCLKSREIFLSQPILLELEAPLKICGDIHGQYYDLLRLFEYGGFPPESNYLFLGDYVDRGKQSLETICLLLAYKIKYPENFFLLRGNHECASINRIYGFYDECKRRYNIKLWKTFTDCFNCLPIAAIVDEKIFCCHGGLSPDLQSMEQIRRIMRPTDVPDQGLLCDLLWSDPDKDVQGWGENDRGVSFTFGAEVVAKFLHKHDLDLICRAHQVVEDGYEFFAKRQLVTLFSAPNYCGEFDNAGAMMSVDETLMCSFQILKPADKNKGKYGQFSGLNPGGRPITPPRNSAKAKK

With `CCOC(=O)c1c(C)oc2cc(Br)c(O)c(Br)c12` the IC50 [1] was 779 nM (active).

With `Cc1ccc(-c2cc(C(=O)O)c3cc(Br)ccc3n2)o1` the IC50 [2] was > 109 µM (not active), the IC50 [3] was 27.9 µM (not active) and the IC50 [4] was 2.98 µM (active). The IC50 [5] was 3.93 µM (active), the EC50 [6] was 16.5 µM (active) and the IC50 [7] was > 39.8 µM (not active).

For `Oc1ccc(N=Nc2ccccc2C(F)(F)F)c2cccnc12`, the IC50 [8] was > 20 µM (inactive), the EC50 [9] was > 160 µM (inactive) and the IC50 [10] was 19.8 µM (active). For the same molecule, the EC50 [11] was 1.57 µM (active), the IC50 [12] was 7.03 µM (active) and the IC50 [13] was > 20 µM (inactive). The IC50 [14] was > 20 µM (inactive), the EC50 [15] was > 20 µM (inactive) and the EC50 [16] was 6.95 µM (active). For the same molecule, the IC50 [17] was 6.27 µM (active), the IC50 [18] was > 20 µM (inactive) and the EC50 [19] was 1.08 µM (active). The AC50 [20] was 4.15 µM (active), the EC50 [21] was 1.9 µM (active) and the IC50 [22] was > 25 µM (inactive). The EC50 [23] was 308 nM (active), the AC50 [24] was 1.17 µM (active) and the IC50 [25] was > 20 µM (inactive). For the same molecule, the IC50 [26] was > 20 µM (inactive), the CC50 [27] was 4.62 µM (active) and the IC50 [28] was > 25 µM (active). The IC50 [29] was 4.21 µM (inactive), the EC50 [30] was 3.71 µM (active) and the EC50 [31] was 633 nM (active).

In the case of `Cc1ccn2c(Nc3ccc4c(c3)OCO4)c(-c3ccccn3)nc2c1`, the IC50 [32] was 11.5 µM (active), the IC50 [33] was 37.9 µM (not active) and the IC50 [34] was 6.76 µM (active).

From ChEMBL document CHEMBL1201862, “PubChem BioAssay data set” (2004)
